Assay results: patent publication US11648254B2 (Kumquat Biosciences Inc., priority 2021, dated 2023)
Like-named read-outs stand apart in the source and are kept apart here.

Columns and labels:
[1] = tested on: NCI-H1975 cells (EGFR T790M L858R); test: EGFR-SOS cellular inhibition assay (CellTiter-Glo, 3D); type: cell-based; conditions: Homo sapiens
SOS1 = SOS1 (Homo sapiens (Human), UniProt Q07889); test: Ras-SOS interaction assay (HTRF); type: biochemical
[2] = tested on: MIA PaCa-2 cells (K-Ras G12C); test: Ras-SOS cellular growth inhibition assay (CellTiter-Glo, 3D); type: cell-based; conditions: Homo sapiens
Outline: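 Growth read by CellTiter-Glo luminescence about 5 days after dosing with 3-fold dilutions (9 points), added one day post-seeding. Cells: MIA PaCa-2, 3D culture on ultra-low-attachment surface, medium DMEM/Ham's F12 plus 10% FCS and 2.5% horse serum; IC50 by four-parameter fit.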

[3] = 120 h, NCI-H1975, 3D proliferation, about 5 days, read-out: Bio-Cell-Prolif-3D (H1975 IC50)
[4] = K-RasG13D utilized, read-out: IC50 inhibition of SOS
[5] = K-RasG13D, read-out: IC50 value against SOS1
[6] = MIA PaCa-2, 120 h, MIA PaCa-2, 3D proliferation, about 5 days, read-out: Bio-Cell-Prolif-3D (MiaPaca2 IC50)
[7] = NCI-H1975, EGFR T790M L858R, read-out: IC50 in inhibiting growth of NCI-H1975 cell line
[8] = MIA PaCa-2, MIA PaCa-2, read-out: IC50 in inhibiting MIA PaCa-2 cell growth

Chain of SOS1 (Q07889 564-1049): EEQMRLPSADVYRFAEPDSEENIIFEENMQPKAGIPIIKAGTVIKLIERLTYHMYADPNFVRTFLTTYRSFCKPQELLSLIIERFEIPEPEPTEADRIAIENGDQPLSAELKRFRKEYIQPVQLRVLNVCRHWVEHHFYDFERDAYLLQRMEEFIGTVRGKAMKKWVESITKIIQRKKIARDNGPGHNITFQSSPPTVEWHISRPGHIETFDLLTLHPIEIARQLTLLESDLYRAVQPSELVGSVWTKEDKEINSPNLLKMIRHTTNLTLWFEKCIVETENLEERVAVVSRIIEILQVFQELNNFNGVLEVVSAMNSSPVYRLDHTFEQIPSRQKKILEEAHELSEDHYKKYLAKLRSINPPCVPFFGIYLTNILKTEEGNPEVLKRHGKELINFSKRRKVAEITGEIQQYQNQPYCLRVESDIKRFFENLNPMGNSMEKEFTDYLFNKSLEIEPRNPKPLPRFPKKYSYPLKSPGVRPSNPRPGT

Row | Compound | IC50 [1, 3] | IC50 (SOS1; [4]) | IC50 (SOS1; [5]) | IC50 [2, 6] | IC50 [1, 7] | IC50 [2, 8]
1 | COc1nc2ncnc(N[C@H](C)c3cccc(C(F)F)c3F)c2cc1C1CCS(=O)(=O)CC1 [Compound 315, (R)-4-(4-((1-(3-(difluoromethyl)-2-fluorophenyl)ethyl)amino)-7-methoxypyrido[2,3-d]pyrimidin-6-yl)tetrahydro-2H-thiopyran 1,1-dioxide] | ≤ 1000 nM | < 100 nM | – | 1000 to 10000 nM | < 500 nM | –
2 | CC(C)N1CCC(c2cc3c(N[C@H](C)c4cccc(C(F)F)c4F)ncnc3nc2OC2COC2)CC1 [Compound 317, (R)-N-(1-(3-(difluoromethyl)-2-fluorophenyl)ethyl)-6-(1-isopropylpiperidin-4-yl)-7-(oxetan-3-yloxy)pyrido[2,3-d] pyrimidin-4-amine] | ≤ 1000 nM | < 100 nM | < 50 nM | 1000 to 10000 nM | < 500 nM | –
3 | CCN1CCC(c2cc3c(N[C@H](C)c4cccc(C(F)F)c4F)nc(C)nc3nc2OC2CN(C)C2)CC1 [Compound 318] | ≤ 1000 nM | < 100 nM | < 50 nM | ≤ 1000 nM | – | –
4 | COc1nc2nc(C)nc(N[C@H](C)c3cccc(C(F)F)c3F)c2cc1C1(C#N)CCOCC1 [Compound 320, (R)-4-(4-((1-(3-(difluoromethyl)-2-fluorophenyl)ethyl)amino)-7-methoxy-2-methylpyrido[2,3-d]pyrimidin-6-yl)tetrahydro-2H-pyran-4-carbonitrile] | ≤ 1000 nM | < 100 nM | < 50 nM | ≤ 1000 nM | < 500 nM | –
5 | COc1nc2nc(C)nc(N[C@H](C)c3cccc(C(F)(F)C(C)(C)O)c3F)c2cc1C1CCS(=O)(=O)CC1 [Compound 321, (R)-4-(4-((1-(3-(1,1-difluoro-2-hydroxy-2-methylpropyl)-2-fluorophenyl)ethyl)amino)-7-methoxy-2-methylpyrido[2,3-d]pyrimidin-6-yl)tetrahydro-2H-thiopyran 1,1-dioxide] | ≤ 1000 nM | < 100 nM | < 50 nM | ≤ 1000 nM | < 500 nM | –
6 | COc1nc2nc(C)nc(N[C@H](C)c3cccc(C(F)(F)C(C)(C)O)c3F)c2cc1N1CCN(C)CC1 [Compound 323, (R)-1,1-difluoro-1-(2-fluoro-3-(1-((7-methoxy-2-methyl-6-(4-methylpiperazin-1-yl)pyrido[2,3-d]pyrimidin-4-yl)amino)ethyl)phenyl)-2-methylpropan-2-ol] | ≤ 1000 nM | < 100 nM | < 50 nM | ≤ 1000 nM | < 500 nM | –
7 | COc1nc2nc(C)nc(N[C@H](C)c3cccc(C(F)(F)C(C)(C)O)c3)c2cc1N1CCN(C)CC1 [Compound 324, (R)-1,1-difluoro-1-(3-(1-((7-methoxy-2-methyl-6-(4-methylpiperazin-1-yl)pyrido[2,3-d]pyrimidin-4-yl)amino)ethyl)phenyl)-2-methylpropan-2-ol] | ≤ 1000 nM | < 100 nM | < 50 nM | ≤ 1000 nM | < 500 nM | < 500 nM
8 | COc1nc2nc(OC[C@@H]3CCCN3C)nc(N[C@H](C)c3cccc(C(F)F)c3F)c2cc1C1(C#N)CC1 [Compound 326, 1-(4-(((R)-1-(3-(difluoromethyl)-2-fluorophenyl)ethyl)amino)-7-methoxy-2-(((S)-1-methylpyrrolidin-2-yl)methoxy)pyrido[2,3-d]pyrimidin-6-yl)cyclopropane-1-carbonitrile] | ≤ 1000 nM | < 100 nM | < 50 nM | ≤ 1000 nM | < 500 nM | –
9 | Cc1c([C@@H](C)Nc2ncnc3nc(Cl)c(N4CCS(=O)(=O)CC4)cc23)cccc1C(F)(F)F [Compound 328, (R)-4-(7-chloro-4-((1-(2-methyl-3-(trifluoromethyl)phenyl)ethyl)amino)pyrido[2,3-d]pyrimidin-6-yl)thiomorpholine 1,1-dioxide] | ≤ 1000 nM | < 100 nM | < 50 nM | ≤ 1000 nM | < 500 nM | < 500 nM
10 | C[C@@H](Nc1ncnc2nc(Cl)c(N3CCS(=O)(=O)CC3)cc12)c1cccc(C(F)(F)F)c1F [Compound 330, (R)-4-(7-chloro-4-((1-(2-fluoro-3-(trifluoromethyl)phenyl)ethyl)amino)pyrido[2,3-d]pyrimidin-6-yl)thiomorpholine 1,1-dioxide] | ≤ 1000 nM | < 100 nM | < 50 nM | ≤ 1000 nM | < 500 nM | < 500 nM
11 | C[C@@H](Nc1ncnc2nc(Cl)c(C3CCS(=O)(=O)CC3)cc12)c1cccc(C(F)(F)F)c1F [Compound 331, (R)-4-(7-chloro-4-((1-(2-fluoro-3-(trifluoromethyl)phenyl)ethyl)amino)pyrido[2,3-d]pyrimidin-6-yl)tetrahydro-2H-thiopyran 1,1-dioxide] | ≤ 1000 nM | < 100 nM | < 50 nM | ≤ 1000 nM | < 500 nM | < 500 nM

Next, values leading:

Row | IC50 [1, 3] | IC50 (SOS1; [4]) | IC50 (SOS1; [5]) | IC50 [2, 6] | IC50 [1, 7] | IC50 [2, 8] | Compound
12 | ≤ 1000 nM | < 100 nM | < 50 nM | 1000 to 10000 nM | – | – | Cc1nc(N[C@H](C)c2cccc(C(F)F)c2F)c2cc(C3(C#N)CC3)c(OCC3COC3)nc2n1 [Compound 299, (R)-1-(4-((1-(3-(difluoromethyl)-2-fluorophenyl)ethyl)anrino)-2-methyl-7-(oxetan-3-ylmethoxy)pyrido[2,3-d]pyrimidin-6-yl)cyclopropane-1-carbonitrile]
13 | ≤ 1000 nM | < 100 nM | < 50 nM | 1000 to 10000 nM | < 500 nM | – | COc1nc2nc(C)nc(N[C@H](C)c3cccc(C(F)(F)F)c3F)c2cc1C1CCN(C(=O)[C@@H]2COCCO2)CC1 [Compound 301, ((S)-1,4-dioxan-2-yl)(4-(4-(((R)-1-(2-fluoro-3-(trifluoromethyl)phenyl)ethyl)amino)-7-methoxy-2-methylpyrido[2,3-d]pyrimidin-6-yl)piperidin-1-yl)methanone]
14 | ≤ 1000 nM | < 100 nM | < 50 nM | ≤ 1000 nM | < 500 nM | – | COc1nc2nc(C)nc(N[C@H](C)c3cccc(C(F)(F)F)c3F)c2cc1C1CCN(C(=O)CN(C)C)CC1 [Compound 302, (R)-2-(dimethylamino)-1-(4-(4-((1-(2-fluoro-3-(trifluoromethyl)phenyl)ethyl)amino)-7-methoxy-2-methylpyrido[2,3-d]pyrimidin-6-yl)piperidin-1-yl)ethan-1-one]
15 | ≤ 1000 nM | < 100 nM | < 50 nM | ≤ 1000 nM | < 500 nM | < 500 nM | COc1nc2nc(C)nc(N[C@H](C)c3cccc(C(F)(F)F)c3F)c2cc1C1CCN(C(=O)CO)CC1 [Compound 304, (R)-1-(4-(4-((1-(2-fluoro-3-(trifluoromethyl)phenyl)ethyl)amino)-7-methoxy-2-methylpyrido[2,3-d]pyrimidin-6-yl)piperidin-1-yl)-2-hydroxyethan-1-one]
16 | ≤ 1000 nM | < 100 nM | < 50 nM | ≤ 1000 nM | – | < 500 nM | COc1nc2nc(C)nc(N[C@H](C)c3cccc(C(F)(F)CO)c3F)c2cc1N1CCS(=O)(=O)CC1 [Compound 307, (R)-4-(4-((1-(3-(1,1-difluoro-2-hydroxyethyl)-2-fluorophenyl)ethyl)amino)-7-methoxy-2-methylpyrido[2,3-d]pyrimidin-6-yl)thiomorpholine 1,1-dioxide]
17 | ≤ 1000 nM | < 100 nM | < 50 nM | ≤ 1000 nM | < 500 nM | – | COc1nc2nc(C)nc(N[C@H](C)c3cccc(C(F)(F)F)c3F)c2cc1C1CCN(C)CC1 [Compound 309, (R)-N-(1-(2-fluoro-3-(trifluoromethyl)phenyl)ethyl)-7-methoxy-2-methyl-6-(1-methylpiperidin-4-yl)pyrido[2,3-d]pyrimidin-4-amine]
18 | ≤ 1000 nM | < 100 nM | < 50 nM | ≤ 1000 nM | < 500 nM | < 500 nM | COc1nc2nc(C)nc(N[C@H](C)c3cccc(C(F)(F)F)c3F)c2cc1N1CCN(C(=O)CN(C)C)CC1 [Compound 312, (R)-2-(dimethylamino)-1-(4-(4-((1-(2-fluoro-3-(trifluoromethyl)phenyl)ethyl)amino)-7-methoxy-2-methylpyrido[2,3-d]pyrimidin-6-yl)piperazin-1-yl)ethan-1-one]
19 | ≤ 1000 nM | < 100 nM | < 50 nM | ≤ 1000 nM | < 500 nM | < 500 nM | COc1nc2nc(C)nc(N[C@H](C)c3cccc(C(F)(F)F)c3F)c2cc1N1CCN(C(=O)CO)CC1 [Compound 313, (R)-1-(4-(4-((1-(2-fluoro-3-(trifluoromethyl)phenyl)ethyl)amino)-7-methoxy-2-methylpyrido[2,3-d]pyrimidin-6-yl)piperazin-1-yl)-2-hydroxyethan-1-one]
20 | ≤ 1000 nM | < 100 nM | < 50 nM | ≤ 1000 nM | – | < 500 nM | CCN1CCN(c2cc3c(N[C@H](C)c4cccc(C(F)F)c4F)nc(C)nc3nc2OCCOC)CC1 [Compound 314, (R)-N-(1-(3-(difluoromethyl)-2-fluorophenyl)ethyl)-6-(4-ethylpiperazin-1-yl)-7-(2-methoxyethoxy)-2-methylpyrido[2,3-d] pyrimidin-4-amine]
